Measured values taken from patent publication US12162890B2 (Novartis AG, priority 2015, dated 2024).

Biological target: HEK293 cells with stable expression of the GRIN1 gene and tetracycline-inducible expression of the GRIN2B gene (NMDA receptor, NR2B) (Homo sapiens, UniProt Q13224)
Test: Fluo-8 Ca2+ flux assay: reversal of Ro 25-6981-mediated suppression of the Ca2+ response to co-agonist (glutamate/glycine); also: test concentration or dose not given here
Assay type: cell-based
Details: reversal of the Ro 25-6981 suppression of the Ca2+ response to co-agonist (glutamate/glycine)

Chain of HEK293 cells with stable expression of the GRIN1 gene and tetracycline-inducible expression of the GRIN2B gene (NMDA receptor, NR2B) (Q13224 27-1484, other chains not shown): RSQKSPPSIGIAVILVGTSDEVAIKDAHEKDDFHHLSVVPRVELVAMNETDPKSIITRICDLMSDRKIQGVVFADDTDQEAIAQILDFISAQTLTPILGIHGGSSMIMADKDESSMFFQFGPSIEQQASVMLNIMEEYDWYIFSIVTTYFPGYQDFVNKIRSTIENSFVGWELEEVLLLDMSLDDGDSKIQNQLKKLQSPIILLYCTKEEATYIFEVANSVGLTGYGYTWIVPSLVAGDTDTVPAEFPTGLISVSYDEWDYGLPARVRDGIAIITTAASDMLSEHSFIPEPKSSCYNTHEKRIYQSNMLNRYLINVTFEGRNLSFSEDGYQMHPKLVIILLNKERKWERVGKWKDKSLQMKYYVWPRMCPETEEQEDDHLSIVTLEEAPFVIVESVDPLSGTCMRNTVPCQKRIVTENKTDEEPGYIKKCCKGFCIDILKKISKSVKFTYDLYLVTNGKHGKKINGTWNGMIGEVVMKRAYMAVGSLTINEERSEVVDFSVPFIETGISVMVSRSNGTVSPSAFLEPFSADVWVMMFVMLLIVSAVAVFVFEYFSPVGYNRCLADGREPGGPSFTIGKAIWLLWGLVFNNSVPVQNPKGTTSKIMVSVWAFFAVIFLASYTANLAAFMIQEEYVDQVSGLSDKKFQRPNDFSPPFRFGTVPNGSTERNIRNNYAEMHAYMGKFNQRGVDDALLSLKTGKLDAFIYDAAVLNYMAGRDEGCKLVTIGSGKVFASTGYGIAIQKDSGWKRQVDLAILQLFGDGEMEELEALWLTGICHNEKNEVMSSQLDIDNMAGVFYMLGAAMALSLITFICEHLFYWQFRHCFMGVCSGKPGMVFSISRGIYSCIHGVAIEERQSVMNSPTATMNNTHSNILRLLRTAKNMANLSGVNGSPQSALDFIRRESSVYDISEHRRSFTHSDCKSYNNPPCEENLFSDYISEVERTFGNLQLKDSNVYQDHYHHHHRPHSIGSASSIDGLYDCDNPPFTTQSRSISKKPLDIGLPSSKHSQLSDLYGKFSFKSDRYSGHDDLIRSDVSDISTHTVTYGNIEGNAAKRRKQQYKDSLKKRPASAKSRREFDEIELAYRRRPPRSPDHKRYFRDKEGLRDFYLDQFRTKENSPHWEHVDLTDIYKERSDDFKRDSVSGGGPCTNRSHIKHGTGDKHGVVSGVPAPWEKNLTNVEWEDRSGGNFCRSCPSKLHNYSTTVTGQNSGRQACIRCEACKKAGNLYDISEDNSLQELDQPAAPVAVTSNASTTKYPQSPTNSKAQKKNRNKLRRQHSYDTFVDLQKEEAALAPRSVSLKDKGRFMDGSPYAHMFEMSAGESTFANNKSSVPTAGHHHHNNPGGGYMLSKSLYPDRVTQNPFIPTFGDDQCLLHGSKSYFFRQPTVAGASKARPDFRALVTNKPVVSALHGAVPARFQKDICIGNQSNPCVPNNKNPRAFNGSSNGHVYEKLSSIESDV

Row | SMILES | Response Recovered (%)
1 | O=C(Cn1cc(CN2CCCC2)c2scc(-c3ccc(F)c(Cl)c3)c2c1=O)N1CCC(F)C1 (stereo not drawn) [Example 119, 3-(3-chloro-4-fluorophenyl)-5-(2-(3-fluoropyrrolidin-1-yl)-2-oxoethyl)-7-(pyrrolidin-1-ylmethyl)thieno[3,2-c]pyridin-4(5H)-one] | 75
2 | COCn1cc(-c2ccc(F)c(Cl)c2)c2c(=O)n(CC(=O)N3CC(C)(F)C3)ccc21 [Example 254, 3-(3-chloro-4-fluorophenyl)-5-(2-(3-fluoro-3-methylazetidin-1-yl)-2-oxoethyl)-1-(methoxymethyl)-1,5-dihydro-4H-pyrrolo[3,2-c]pyridin-4-one] | 140
3 | Cn1cc(-c2ccc(Cl)c(F)c2)c2c(=O)n(CC(=O)N3CC(F)(F)C3)cnc21 [Example 170, 5-(4-chloro-3-fluorophenyl)-3-(2-(3,3-difluoroazetidin-1-yl)-2-oxoethyl)-7-methyl-3H-pyrrolo[2,3-d]pyrimidin-4(7H)-one] | 18
4 | Cn1cc(-n2cc(-c3ccc(Cl)c(Cl)c3)c3c(=O)n(CC(=O)N4CCC(F)C4)ccc32)cn1 (stereo not drawn) [Example 283, 3-(3,4-dichlorophenyl)-5-(2-(3-fluoropyrrolidin-1-yl)-2-oxoethyl)-1-(1-methyl-1H-pyrazol-4-yl)-1H-pyrrolo[3,2-c]pyridin-4(5H)-one] | 82
5 | C[Si](C)(C)CCOCn1cc(-c2ccc(Cl)c(C(F)(F)F)c2)c2c(=O)n(CC(=O)N3CCC(F)C3)ccc21 (stereo not drawn) [Example 199, 3-(4-chloro-3-(trifluoromethyl)phenyl)-5-(2-(3-fluoropyrrolidin-1-yl)-2-oxoethyl)-1-((2-(trimethylsilyl)ethoxy)methyl)-1H-pyrrolo[3,2-c]pyridin-4(5H)-one] | 47
6 | O=C(Cn1ccc2cccc(-c3ccc(Cl)c(F)c3)c2c1=O)N1CCC(F)C1 (stereo not drawn) [Example 306, 8-(4-chloro-3-fluorophenyl)-2-(2-(3-fluoropyrrolidin-1-yl)-2-oxoethyl)isoquinolin-1(2H)-one] | 25
7 | CCC1(F)CN(C(=O)Cn2ccc3scc(-c4ccc(F)c(Cl)c4)c3c2=O)C1 [Example 52, 3-(3-chloro-4-fluorophenyl)-5-(2-(3-ethyl-3-fluoroazetidin-1-yl)-2-oxoethyl)thieno[3,2-c]pyridin-4(5H)-one] | 130
8 | COCc1cn(CC(=O)N2CCC(F)C2)c(=O)c2c(-c3ccc(Cl)c(Cl)c3)csc12 (stereo not drawn) [Example 132, 3-(3,4-dichlorophenyl)-5-(2-(3-fluoropyrrolidin-1-yl)-2-oxoethyl)-7-(methoxymethyl) thieno[3,2-c]pyridin-4(5H)-one] | 20
9 | Cc1cc(-c2csc3ccn(CC(=O)N4CC(C)(F)C4)c(=O)c23)ccc1F [Example 23, 5-(2-(3-fluoro-3-methylazetidin-1-yl)-2-oxoethyl)-3-(4-fluoro-3-methylphenyl)thieno[3,2-c]pyridin-4(5H)-one] | 100
10 | O=C(Cn1cc(CN2CCCC2)c2scc(-c3ccc(Cl)c(Cl)c3)c2c1=O)N1CCC(F)C1 (stereo not drawn) [Example 121, 3-(3,4-dichlorophenyl)-5-(2-(3-fluoropyrrolidin-1-yl)-2-oxoethyl)-7-(pyrrolidin-1-ylmethyl)thieno[3,2-c]pyridin-4(5H)-one] | 59
11 | COCc1cn(CC(=O)N2CCC(F)C2)c(=O)c2c(-c3ccc(F)c(Cl)c3)csc12 (stereo not drawn) [Example 128, 3-(3-chloro-4-fluorophenyl)-5-(2-(3-fluoropyrrolidin-1-yl)-2-oxoethyl)-7-(methoxymethyl) thieno[3,2-c]pyridin-4(5H)-one] | 23
12 | O=C(Cn1ccc2scc(-c3ccc(Cl)c(C(F)(F)F)c3)c2c1=O)N1CC[C@H](F)C1 [Example 15, (S)-3-(4-chloro-3-(trifluoromethyl)phenyl)-5-(2-(3-fluoropyrrolidin-1-yl)-2-oxoethyl)thieno[3,2-c]pyridin-4(5H)-one] | 95
13 | O=C(Cn1ccn2ccc(-c3ccc(F)c(C(F)(F)F)c3)c2c1=O)N1CCC(F)C1 (stereo not drawn) [Example 390, 8-(4-fluoro-3-(trifluoromethyl)phenyl)-2-(2-(3-fluoropyrrolidin-1-yl)-2-oxoethyl)pyrrolo[1,2-a]pyrazin-1(2H)-one] | 51
14 | O=C(Cn1cc(-c2ccncc2)c2scc(-c3ccc(Cl)c(C(F)(F)F)c3)c2c1=O)N1CCCC1 [Example 103, 3-(4-chloro-3-(trifluoromethyl)phenyl)-5-(2-oxo-2-(pyrrolidin-1-yl)ethyl)-7-(pyridin-4-yl)thieno[3,2-c]pyridin-4(5H)-one] | 32
15 | O=C(Cn1cnc2csc(-c3ccc(Cl)cc3)c2c1=O)N1CC(F)(F)C1 [Example 348, 5-(4-chlorophenyl)-3-(2-(3,3-difluoroazetidin-1-yl)-2-oxoethyl)thieno[3,4-d]pyrimidin-4(3H)-one] | 26
16 | O=C(Cn1ccc2scc(-c3ccc(F)c(Cl)c3)c2c1=O)N1CCC(F)C1 (stereo not drawn) [Example 9, 3-(3-Chloro-4-fluoro-phenyl)-5-[2-(3-fluoro-pyrrolidin-1-yl)-2-oxo-ethyl]-5H-thieno[3,2-c]pyridin-4-one] | 81
17 | O=C(Cn1cnc2cccc(-c3ccc(Cl)cc3)c2c1=O)N1CCCC1 [Example 295, 5-(4-chlorophenyl)-3-(2-oxo-2-(pyrrolidin-1-yl)ethyl)quinazolin-4(3H)-one] | 1
18 | O=C(Cn1ccc2scc(-c3ccc(Cl)c(F)c3)c2c1=O)N1CCC(F)C1 (stereo not drawn) [Example 7, 3-(4-chloro-3-fluorophenyl)-5-(2-(3-fluoropyrrolidin-1-yl)-2-oxoethyl)thieno[3,2-c]pyridin-4(5H)-one] | 49
19 | Cn1cc(-n2cc(-c3ccc(F)c(C(F)(F)F)c3)c3c(=O)n(CC(=O)N4CC(C)(F)C4)ccc32)cn1 [Example 236, 3-(4-fluoro-3-(trifluoromethyl)phenyl)-5-(2-(3-fluoro-3-methylazetidin-1-yl)-2-oxoethyl)-1-(1-methyl-1H-pyrazol-4-yl)-1H-pyrrolo[3,2-c]pyridin-4(5H)-one] | 140
20 | O=C(Cn1cnc2[nH]nc(-c3ccc(Cl)c(C(F)(F)F)c3)c2c1=O)N1CCC(F)C1 (stereo not drawn) [Example 318, 3-(4-chloro-3-(trifluoromethyl)phenyl)-5-(2-(3-fluoropyrrolidin-1-yl)-2-oxoethyl)-1H-pyrazolo[3,4-d]pyrimidin-4(5H)-one] | 26
21 | O=C(Cn1ccc2ccc(-c3ccc(Cl)c(Cl)c3)cc2c1=O)N1CCC(F)C1 (stereo not drawn) [Example 315, 7-(3,4-dichlorophenyl)-2-(2-(3-fluoropyrrolidin-1-yl)-2-oxoethyl)isoquinolin-1(2H)-one] | 2
22 | Cc1ncc(-c2csc3ccn(CC(=O)N4CC(C)(F)C4)c(=O)c23)cc1Cl [Example 90, 3-(5-chloro-6-methylpyridin-3-yl)-5-(2-(3-fluoro-3-methylazetidin-1-yl)-2-oxoethyl)thieno[3,2-c]pyridin-4(5H)-one] | 75
23 | CCC1(F)CN(C(=O)Cn2ccc3scc(-c4ccc(Cl)c(Cl)c4)c3c2=O)C1 [Example 50, 3-(3,4-dichlorophenyl)-5-(2-(3-ethyl-3-fluoroazetidin-1-yl)-2-oxoethyl)thieno[3,2-c]pyridin-4(5H)-one] | 96
24 | CC1(NC(=O)OC(C)(C)C)CN(C(=O)Cn2ccc3scc(-c4ccc(Cl)c(Cl)c4)c3c2=O)C1 [Example 73, tert-butyl (1-(2-(3-(3,4-dichlorophenyl)-4-oxothieno[3,2-c]pyridin-5(4H)-yl)acetyl)-3-methylazetidin-3-yl)carbamate] | 9.8
25 | CCn1cc(-c2ccc(F)c(C(F)(F)F)c2)c2c(=O)n(CC(=O)N3CCC(F)C3)cnc21 (stereo not drawn) [Example 184] | 66
26 | Cn1cc(-c2ccc(Cl)c(C(F)(F)F)c2)c2c(=O)n(CC(=O)N3CCCC3)cnc21 [Example 158, 5-(4-chloro-3-(trifluoromethyl)phenyl)-7-methyl-3-(2-oxo-2-(pyrrolidin-1-yl)ethyl)-3H-pyrrolo[2,3-d]pyrimidin-4(7H)-one] | 72
27 | O=C(Cn1cc(-c2ncon2)c2scc(-c3ccc(F)c(C(F)(F)F)c3)c2c1=O)N1CCCC1 [Example 109, 3-(4-fluoro-3-(trifluoromethyl)phenyl)-7-(1,2,4-oxadiazol-3-yl)-5-(2-oxo-2-(pyrrolidin-1-yl)ethyl)thieno[3,2-c]pyridin-4(5H)-one] | 14
28 | O=C(Cn1ccc2c(c(-c3ccc(F)c(Cl)c3)cn2-c2ccccn2)c1=O)N1CCC(F)C1 (stereo not drawn) [Example 228, 3-(4-chloro-4-fluorophenyl)-5-(2-(3-fluoropyrrolidin-1-yl)-2-oxoethyl)-1-(pyridin-2-yl)-1H-pyrrolo[3,2-c]pyridin-4(5H)-one] | 39
29 | O=C(Cn1cnc2cccc(-c3ccc(Cl)cc3)c2c1=O)N1CCCC1C(F)(F)F (stereo not drawn) [Example 297, 5-(4-chlorophenyl)-3-(2-oxo-2-(2-(trifluoromethyl)pyrrolidin-1-yl)ethyl)quinazolin-4(3H)-one] | 3
30 | Cn1cc(-c2ccc(F)c(C(F)(F)F)c2)c2c(=O)n(CC(=O)N3CCC(F)C3)ccc21 (stereo not drawn) [Example 251] | 61
